Results reported in article PMC7125926 (Antiviral Research, 2015).
pEC50: −log10 of the molar value. Several values for one entry are separate records, joined by “and”; a condition that tells them apart may be missing. Equal entries are not always repeated. Entries after “also recorded” stand apart in the source; their conditions may differ. Structures can show the parent of a compound that is named as a salt. Where two headings read alike, the source gives them in different places.

Experiments:
IP-10 = assay: tissue or blood; format: cell-based, mouse
influenza virus [1] = conditions: mouse, cited from earlier work
[2] = test system: PR8 (H1N1) influenza virus; format: cell-based
influenza virus [3] = format: in vivo, mice; conditions: Fig. S5
[4] = MTT assay of drug toxicity in mouse lung slices; format: cell-based
influenza A virus = conditions: ref An et al., 2014; cited from earlier work
[5] = read-out: IP-10-EC50: 50% effective concentration determined by ELISA of IP-10
[6] = read-out: NA-EC50: 50% effective concentration determined by NA activity assay
[7] = Mus musculus, 48 h, read-out: IP-10-EC50: 50% effective concentration determined by ELISA of IP-10

SMILES | effect on IP-10 levels in lung slices (in words) (IP-10) | pEC50 (IP-10; [5]) | In vivo: the protection effect of mice from lethal influenza infection (influenza virus [1]) | effect on virus replication / NA activity in lung slices (in words) [2] | protection of mice from lethal doses of influenza virus infection (in words) (influenza virus [3]) | CC50 at 48 h [4] | antiviral activity in MDCK cells (in words) (influenza A virus) | also measured
CCCCC/C=C/C=C1/C(=O)C=C[C@@H]1C/C=C\CCCC(=O)O [15d-PGJ2, 15-deoxy-Δ^12,14-prostaglandin J2] | dose dependently decreased IP-10 levels | 6.70 | + | neither inhibited virus replication | – | – | – | inhibition of virus replication (influenza virus [1]; in vivo): does not inhibit virus replication; mice protected from death against lethal influenza infection (influenza virus [1]; in vivo): 79%
CN(C)CCCOc1nn(Cc2ccccc2)c2ccccc12 [Benzydamine] | inhibited neither | – | – | inhibited neither | failed to protect mice | 113 µM | known antiviral activity | –
Clc1ccccc1C(c1ccccc1)(c1ccccc1)n1ccnc1 [Clotrimazole] | inhibited neither | – | – | inhibited neither | failed to protect mice | 16.3 µM | known antiviral activity | –
CCN(CC)CCOC(=O)C1(C2CCCCC2)CCCCC1 [Dicyclomine] | inhibited neither | – | – | – | – | – | – | –
O=C(O[C@@H]1Cc2c(O)cc(O)cc2O[C@@H]1c1cc(O)c(O)c(O)c1)c1cc(O)c(O)c(O)c1 [EGCG] | dose dependently decrease | 5.48 | + | dose dependently decrease NA levels | – | – | – | pEC50 [2, 6]: 4.30
CC(C)OC(=O)C(C)(C)Oc1ccc(C(=O)c2ccc(Cl)cc2)cc1 [Fenofibrate] | inhibited neither | – | – | inhibited neither | failed to protect mice | > 200 µM | known antiviral activity | –
CC(C)=C1C/C=C(\C)CC/C=C(\C)CC1=O [Gemacrone] | – | 4.75 | + | efficiently inhibited virus replication | – | – | – | pEC50 [2, 6]: 4.64
CCN(CC)CCOC(=O)C(Cc1cccc2ccccc12)CC1CCCO1 (centres unmarked) [Nafronyl oxalate] | inhibited the inflammatory response | – | – | not showing any antiviral activity | – | 122 µM | known antiviral activity | pEC50 (IP-10; [7]): 4.66
CCCC(C(=O)OCCN(CC)CC)(c1ccccc1)c1ccccc1 [Proadifen] | inhibited neither | – | – | inhibited neither | failed to protect mice | 32.2 µM | known antiviral activity | –
NC(=O)c1ncn([C@@H]2O[C@H](CO)[C@@H](O)[C@H]2O)n1 [Ribavirin, ribavirin] | – | – | – | dose dependent inhibition; also recorded: efficiently inhibited virus replication | – | > 200 µM | – | pEC50 (IP-10; [7]): 4.66; pEC50 (IP-10; Mus musculus, 48 h, read-out: IP-10-EC50: 50% effective concentration determined by IP-10 inhibition): 4.66; pEC50 (IP-10; read-out: IP-10-EC50: 50% effective concentration determined by IP-10 inhibition): 4.75 and 4.69 and 4.85; pEC50 ([2]; read-out: NA-EC50: 50% effective concentration determined by NA inhibition): 4.60 and 4.55 and 4.75
C[S+]([O-])c1ccc(-c2nc(-c3ccncc3)c(-c3ccc(F)cc3)[nH]2)cc1 (centres unmarked) [SB203580] | dose dependently decreased IP-10 levels | – | + | neither inhibited virus replication | – | > 100 µM | – | –
N#CC(=C(/N)Sc1ccccc1N)/C(C#N)=C(/N)Sc1ccccc1N [U0126] | dose dependently decrease | 5.89 | + | dose dependent inhibition; also recorded: dose dependently decrease NA levels | – | – | – | pEC50 [2, 6]: 4.92
